Numbered stars: 1 amine (or outer) side, 2 acyl side, 3 side chain; on linkers, the order of the positions; unused ones are H or OH. Bridge positions count the residues as written; N and C are the ends. Square brackets hold non-standard residues; d marks the D form. Ends that are not written are not given here. Peptide text beside a SMILES is read from it. N(6-aminohexyl)Gly = O=C(CN(CCCCCCN[*:3])[*:1])[*:2]; X1 = CC(C)[C@H](NC(=O)CCCCC(=O)[*:1])C(=O)[*:2]
Tests used:
[1] = system: nuclear import of SV40-NLS-BSA (biotinylated BSA-NLS); test: Quantitative ELISA-based nuclear import assay, inhibition of NLS-BSA (SV40-NLS-BSA) uptake in permeabilized Colo-205 cells; format: cell-based; set-up: key to Nuclear uptake of SV40-BSA: +: most of the cells in the field (more than 70-80%) did show nuclear uptake (presence of fluorescent dye within the nuclei); −: most of the cells in the field (more than 70-80%) did show nuclear uptake (their cytoplasm, and not the nuclei, were fluorescently labeled); details: for Nuclear uptake of SV40-BSA: in the presence of the free peptide, ELISA-based assay; for Nuclear entry (%) of SV40-NLS-BSA: WGA 0.6 mg/ml or Tat-NLS peptide 1 mg/ml preincubated 30 minutes, entry with cytosolic factors = 100%
Procedure: (§1) Nuclear import was quantitatively determined essentially as described before (Melchior, et al. (1993) J. Cell. Biol. 123 (6). 1649-1659), except that a suspension of Colo-205 cells was used instead of a suspension of HeLa cells and 500 nM biotinylated BSA-NLS were used as a transport substrate. The immunomodule strips were coated with rabbit anti-BSA serum instead of using the IgG fraction. The results given are an average of triplicate determination whose standard deviation never exceeded ±20%.
Nuclear uptake was determined by the ELISA-based assay, except where indicated. IC50 values were determined by using peptides and transport substrates in molar ratios between 500:1 and 0.005:1 respectively. Cysteine residues in all the peptides are not part of the original sequence and were added in order to conjugate them to BSA.
Inhibition of nuclear uptake was estimated by addition of the above listed peptides to a nuclear transport system using SV40-NLS-BSA as a transport substrate.
(§2) Nuclear transport using SV40-NLS-BSA and Tat-NLS-BSA as transport substrates was performed employing the in-vitro ELISA system.

[2] = system: translocation of FL-NLS-BSA into nuclei of digitonin-permeabilized HeLa cells; test: Nuclear import estimated by fluorescence microscopy; format: cell-based; set-up: key: +: most of the cells in the field (more than 70-80%) did show nuclear uptake (presence of fluorescent dye within the nuclei); −: most of the cells in the field (more than 70-80%) did show nuclear uptake (their cytoplasm, and not the nuclei, were fluorescently labeled); details: in the presence of the free peptide; based on fluorescent microscopy observations (footnote 3)
From the text: HeLa cells were cultivated on 10 mm coverslips to subconfluent density and then permeabilized with digitonin as described before (Broder, et al. ibid). Linear peptides bearing the NLS signal of the SV40 large T-antigen were covalently attached to fluorescently labeled (with FITC) BSA molecules (Goldfarb, et al. (1986) Nature 322, 641-644) and translocation of the resulting fluorescently labeled-NLS-BSA molecules (FL-NLS-BSA) into nuclei of digitonin-permeabilized HeLa cells was followed by fluorescent microscopy observations, as described (Broder, et al. ibid).

trypsin = test: Stability to proteolytic cleavage by trypsin; format: in vitro ADME; details: trypsin solution; room temperature, TEA buffer pH 7.8, HPLC peak area; read-out: half life (t½) of digestion by trypsin (converted)
Procedure: Method: A mixture containing 0.05 ml of trypsin solution (8% w/v in HCl 0.001M), 0.5 ml TEA buffer pH=7.8 (Geiger, R.; Fritz, H. In Methods of enzymatic analysis; H. U. Bergmeyer, et al. Eds.; Weinheim: Verlag-chemie: 1984; pp 119-129) and 0.2 ml of peptide 22 (BCvir) solution in water (initial concentration of 1.25 mg/ml) was injected to HPLC (C3 column, gradient of 5-60% acetonitrile:TDW containing 0.1% TFA, 35 minutes) immediately after addition of the peptide (t=0). The mixture was incubated at room temperature and samples were injected every 70 min. […] The peak area of the peptide at each time interval was compared to the peak area of the peptide in t=0, as a measure of the relative peptide concentration.

Hut 78 cells = details: 0.1, 1, 10 and 100 μg/ml; 1, 2, 4 and 7 days post seeding
Procedure: Method: Hut 78 cells (0.5×10^6/ml) were cultured without or with 0.1, 1, 10 and 100 μg/ml of BCvir. The number of living cells was determined by staining with trypan blue 1, 2, 4 and 7 days post seeding,.

[3] = system: nuclear import of VprN/VprC-BSA conjugate in permeabilized cells; test: Nuclear import of Vpr peptide-BSA conjugates in permeabilized cells; format: cell-based
From the text: Viral protein r (Vpr), an HIV-1 auxiliary protein which mediates nuclear import of the viral preintegration complex (PIC), contains two regions, N- and C-terminal, which have been proposed to function as a nuclear localization signal (NLS). We have synthesized peptides corresponding to both regions (designated as VprN and VprC), conjugated them to bovine serum albumin (BSA), and tested their ability to mediate nuclear import in permeabilized cells.

[4] = system: nuclear import of Tat-NLS-BSA; test: In-vitro ELISA nuclear transport with Tat-NLS-BSA as transport substrate; format: cell-based, human; details: WGA 0.6 mg/ml or Tat-NLS peptide 1 mg/ml preincubated 30 minutes; entry with cytosolic factors = 100%
Procedure: as §1
The entry of the conjugates into nuclei of permeabilized colo cells was estimated as described above. ATP was depleted, WGA (0.6 mg/ml) and Tat-NLS peptide (1 mg/ml) were preincubated for 30 minutes at room temperature with the permeabilized cells before adding the BSA conjugates.
as §2

[5] = SV40-NLS-BSA substrate, peptide:substrate molar ratios between 500:1 and 0.005:1
[6] = purified peptides, inhibition of nuclear import of NLS-BSA

How did the “Nuclear uptake of SV40-BSA” value [1] turn out when CGPKNKRKV [SV40 mutant] was run?
The value was “+”.

“^88EWRKKRYS^95 (Human Immunodeficiency Virus (HIV-1)) [Vif 88-95]” was tested. Which “Nuclear uptake of SV40-BSA” value [1] did it give?
The value was “−”.

^30YVSGKARGWFYRHHY^44 [Vif 30-44] was tested. Which “Nuclear uptake of SV40-BSA” value [2] did it give?
Its value is “+”.

For `NCCCC[C@H](NC(=O)CN1CCCCCCNC(=O)CNC(=O)CCCCC(=O)N[C@@H](CCCCN)C(=O)N[C@@H](CCCCN)C(=O)N[C@@H](CCCCN)C1=O)C(N)=O` [peptide 19.4], which half-life (trypsin) is on record?
Its half-life is 9 h.

Which half-life (trypsin) does the source give for `CC(C)C[C@H](NC(=O)[C@H](CCCCN)NC(=O)CN1CCCCCCNC(=O)[C@H](C(C)C)NC(=O)CCCCC(=O)N[C@@H](CCCCN)C(=O)N[C@@H](CCCCN)C(=O)N[C@@H](CCCCN)C1=O)C(N)=O` [BCvir] (KKK[N(6-aminohexyl)Gly]KL-NH2; linker N-4 via X1) here?
Its half-life is 7 h.

What about the “effect on growth rate of uninfected cells” value (Hut 78 cells) of the same molecule?
The value was “did not affect the growth rate”.

“CVKRKKKPG (Human Immunodeficiency Virus (HIV-1)) [SV40 reverse]” was tested. Which “Nuclear uptake of SV40-BSA” value [1] did it give?
Its value is “+”.

For “^85VSIEWRKK^92 (UniProt P69723 85-92, looked up, fragment) [Vif 85-92]”, which IC50 [1, 5] is on record?
Its IC50 is 253 µM.

And the “Nuclear uptake of SV40-BSA” value [1]?
The value was “−”.

What does the source list for “C^88EWRKKRYSTOV^98 [Vif 88-98] (CEWRKKRYSTQV; not fully specified; printed as C^88EWRKKRYSTOV^98 [Vif 88-98]; UniProt P69723 88-98, looked up, fragment)”?
IC50 [1, 5]: 62 µM; Nuclear uptake of SV40-BSA [1]: −

For PKKKRKVC [SV40 large T-antigen NLS], which “inhibition of nuclear import of the VprN conjugate” value [3] is on record?
The value was “not inhibited”.

What about the IC50 [1, 5] of the same molecule?
The IC50 was 0.02 µM.

What about the “Nuclear uptake of SV40-BSA” value [1] of the same molecule?
Its value is “−”.

What about the IC50 [1, 6] of the same molecule?
The IC50 was 0.001 µM.

For “C^88EWRKKRYSTOV^98 [Vif 88-98 K91L] (CEWRLKRYSTQV; not fully specified; printed as C^88EWRKKRYSTOV^98 [Vif 88-98 K91L])”, which “Nuclear uptake of SV40-BSA” value [1] is on record?
The value was “+”.

How did the “inhibition of nuclear import of the VprN conjugate” value [3] turn out when wheat germ agglutinin [WGA] was run?
Its value is “inhibited”.

And the “Nuclear entry (%) of Tat-NLS-BSA” value [4]?
Its value is 53.6%.

What about the “Nuclear entry (%) of SV40-NLS-BSA” value [1] of the same molecule?
Its value is 49.8%.

Which results are given for “C^35RQARRNRRRRWRERQRQ^51 (N-terminal cysteine; UniProt P04618 35-51, looked up, fragment) [Rev NLS]”?
IC50 [1, 5]: 347 µM; Nuclear uptake of SV40-BSA [1]: −

Which IC50 [1, 6] does the source give for GKKKYKLKHC [HIV-MA NLS] here?
Its IC50 is 12 µM.

C^7KRSMGGWSAIRERMRR^22 [Nef NLS] was tested. Which IC50 [1, 5] did it give?
Its IC50 is 11 µM.

What about the “Nuclear uptake of SV40-BSA” value [1] of the same molecule?
The value was “−”.

How did the “Nuclear uptake of SV40-BSA” value [2] turn out when “^78DWHLGQGV^85 (Human Immunodeficiency Virus (HIV-1)) [Vif 78-85]” was run?
Its value is “+”.

Which “Nuclear uptake of SV40-BSA” value [2] does the source give for ^51ISSEVHIPLGDARLV^65 [Vif 51-65] here?
The value was “+”.

^41RHHYESPHPRISSEV^55 [Vif 41-55] was tested. Which “Nuclear uptake of SV40-BSA” value [2] did it give?
The value was “+”.

“C^48GRKKRRQRRRAHQN^61 (N-terminal cysteine; UniProt P04608 48-61, looked up, fragment) [Tat NLS]” was tested. Which “Nuclear entry (%) of Tat-NLS-BSA” value [4] did it give?
Its value is 15.4%.

And the IC50 [1, 5]?
Its IC50 is 147 µM.

And the “Nuclear entry (%) of SV40-NLS-BSA” value [1]?
The value was 52%.

And the “Nuclear uptake of SV40-BSA” value [1]?
The value was “−”.
